Experimental data published in patent US10414739B2, “Compounds as inhibitors of the YAP/TAZ-TEAD interaction and their use in the treatment of malignant mesothelioma” (INVENTIVA, priority 2015, dated 2019).
Where a name gives a salt, the structure may show the parent alone.

Key:
SW620 cell line = assay: Cell proliferation in YAP-independent cell line (EdU); assay type: cell-based
Description: The tumor cell growth inhibitory activity of the YAP-TEAD interaction inhibitors was evaluated in NCI-H2052 mesothelioma cell line harboring a NF2 mutation. This cell line was selected based on its mutational status and the ability of a siRNA directed against YAP, TAZ or TEAD1-4 to inhibit cell proliferation. The nuclear localization of YAP at confluence was also taken into account. Based on these observations we were able to classify several “YAP dependent cells” where YAP is clearly nuclear and in which a cell growth inhibition is observed by using siRNA (NCI-H2052, SKOV-3, ACHN, A549) and the “YAP independent cells” where YAP is preferentially located in the cytoplasm and in which no inhibition of cell growth is observed by using a siRNA (SW620, Met-5a). […] After one day growth in the starvation medium, cells were incubated with compounds. The starting concentration was 30 μM and serial dilutions in DMSO and medium were performed until […] to achieve a final DMSO concentration of 0.5%. The cells were then allowed to grow for 3 days, and then, EdU (Invitrogen, Molecular Probe) was added in each well at a final concentration of 10 μM and the cells were returned to the incubator for additional 24 h. Starvation medium was removed and 100 μl of PFA 4% containing Hoechst dye was adding in each well to fix the cells. Plates were then incubated at room temperature for 15 minutes, washed twice with PBS and the cells were permeabilized by adding 100 μl per well of triton-100 containing 0.3% BSA. After 20 minutes cells were washed with PBS and the EdU detection was performed according to the instructions of the manufacturer. Image acquisition was performed using the ImageXpress Micro and analysed using the MetaXpress software (Molecular Device). Results were expressed as a percent of inhibition (%) of the cell proliferation values obtained with 0.5% DMSO treatment alone. The cellular response was determined by fitting the concentration response curves using a 3 parameter curve fit equation and determining the concentration that inhibited cell growth between 50% and 100%.

[1] = tested on: YAP-TEAD interaction in co-transfected HEK293 cells; assay: Cell-based TEAD-GAL4 transactivation assay (luciferase reporter); settings: Homo sapiens, HEK293 co-transfected with TEAD1-Gal4, YAP mutant (S127A, S397A) and reporter, 24 h
Description: Effect of Compounds on the Cell-Based TEAD-GAL4 Transactivation Assay
(§1) To identify inhibitors of YAP-TEAD interaction, a transient transactivation assays was carried out into HEK293 cell line (HEK293 GripTite™ 293 MSR (Invitrogen R795-07)) using plasmids containing the full length TEAD1 sequences, the full length YAP mutant (S127A, S397A) and a luciferase gene reporter. All expression constructs were performed into pSG5 backbone plasmid in which the SV40 promoter was replaced by the CMV promoter. The TEAD1 construct was prepared by cloning the full length human TEAD1 cDNA in fusion with the Gal4 DNA Binding Domain (AA 1-148) into pSG5_CMV to create the TEAD1(FL)_hum_pSG5Gal4_CMV. The full length YAP mutant (S127A, S397A) was also cloned into pSG5_CMV to create the YAP(FL)_hum_pSG5_mutS127A_S397A_CMV. The reporter plasmid GAL4(5×RE)_TK(−105/+56)_pGL3-Basic contains 5 copies of the GAL4 responsive element (5′-TCGGAGGACAGTACTCC-3′) upstream of the thymidine kinase (TK) promoter (−105/+56) inserted in a pGL3-Basic vector. To evaluate the selectivity of our compounds in blocking the YAP-TEAD interaction, a counter-screening protein-protein interaction transactivation assays was also established. Briefly, two other expression plasmids, the pBD-P53 which express the P53 (AA 72-390) in fusion with Gal4 and the pAD-SV40T which express the SV40 large T antigen (AA 84-708,AgT), were created. […] Twenty-four hours later, the luciferase activity was determined after addition of 100 μl of Steady Glo™ luciferase assay system (Promega E2550) according to the manufacturer's directions. Luciferase activity in cell extracts is measured by reading luminescence using the Envision device.
The cellular response was determined by fitting the concentration response curves using a 3-parameter curve fit equation and determining the concentration that inhibited the luciferase activity by 50%.

[2] = biological target: T1, YAP-TEAD interaction (human YAP2-His6 (50-114) / human TEAD1-GST (209-426)) (Homo sapiens, UniProt P28347); assay: YAP-TEAD AlphaLISA assay; assay type: binding; settings: for Emax: 2 h, maximal % inhibition, read-out: Max Act.; for Emax / IC50: YAP-TEAD AlphaLISA; for IC50: 2 h equilibration at room temperature
T1 construct: GST-TEAD1 (209-426) produced in E. coli; made in house; host or cells: E. coli
Description: YAP-TEAD AlphaLISA Assay for IC50 Value Determination.
YAP-TEAD binding and inhibition was assessed by monitoring the engagement of YAP2 peptide (human YAP2-His6 (50-114) produced in E. coli) with TEAD (human TEAD1-GST (GST-TEAD1 (209-426) produced in E. coli) using the AlphaLisa technology (Perkin-Elmer). Specifically, in a 384 well (Axygen) 5 μl of compounds were dispensed in 100% DMSO following a semi log serial dilution, with a top concentration of […] (10 concentrations). A ‘3 partners solution’ was prepared by mixing AlphaScreen Glutathione Donor beads 15 μg/ml (PerkinElmer), Anti-6×His AlphaLisA Acceptor beads 15 μg/ml (PerkinElmer) and Human YAP2 9 nM in 100 mM NaCl, 25 mM Hepes, 0.1% BSA, 0.5% NoNidet®P40 buffer. In the 384 assay plate (Proxiplate, Perkin-Elmer)) 2 μl of compound at each concentration, 6 μl of buffer, 6 μl of hTEAD1-GST 9 nM and 6 μl of ‘3 partner solution’ were mixed. After 2 h equilibration at room temperature in the dark the plates were read on an Envision instrument (Excitation @ 680 nm/Emission @ 570 nm, Perkin Elmer).
Results were expressed as % inhibition=100×((HighControl−Cpd)/(HighControl−LowControl)), were High control is the maximum response obtained with all components and Low control is the basal response obtained with all components without GST-Tead1.
Cpd is the response obtained for test compounds.
IC50 (half maximal inhibitory concentration) was determined by fitting the concentration response curves using a 3-parameter curve fit equation and determining concentration corresponding to 50% inhibition.

[3] = tested on: NCI-H2052 mesothelioma cell line; assay: Inhibition of malignant mesothelioma tumor cell growth (EdU proliferation); assay type: cell-based; settings: NCI-H2052 (NF2 mutated), 1% serum
Description: Inhibition of Malignant Mesothelioma Tumor Cell Growth
The tumor cell growth inhibitory activity of the YAP-TEAD interaction inhibitors was evaluated in NCI-H2052 mesothelioma cell line harboring a NF2 mutation. This cell line was selected based on its mutational status and the ability of a siRNA directed against YAP, TAZ or TEAD1-4 to inhibit cell proliferation. The nuclear localization of YAP at confluence was also taken into account. Based on these observations we were able to classify several “YAP dependent cells” where YAP is clearly nuclear and in which a cell growth inhibition is observed by using siRNA (NCI-H2052, SKOV-3, ACHN, A549) and the “YAP independent cells” where YAP is preferentially located in the cytoplasm and in which no inhibition of cell growth is observed by using a siRNA (SW620, Met-5a). […] After one day growth in the starvation medium, cells were incubated with compounds. The starting concentration was 30 μM and serial dilutions in DMSO and medium were performed until […] to achieve a final DMSO concentration of 0.5%. The cells were then allowed to grow for 3 days, and then, EdU (Invitrogen, Molecular Probe) was added in each well at a final concentration of 10 μM and the cells were returned to the incubator for additional 24 h. Starvation medium was removed and 100 μl of PFA 4% containing Hoechst dye was adding in each well to fix the cells. Plates were then incubated at room temperature for 15 minutes, washed twice with PBS and the cells were permeabilized by adding 100 μl per well of triton-100 containing 0.3% BSA. […] Image acquisition was performed using the ImageXpress Micro and analysed using the MetaXpress software (Molecular Device). Results were expressed as a percent of inhibition (%) of the cell proliferation values obtained with 0.5% DMSO treatment alone. The cellular response was determined by fitting the concentration response curves using a 3 parameter curve fit equation and determining the concentration that inhibited cell growth between 50% and 100%.

[4] = tested on: P53 / SV40 large T antigen (AgT) interaction in HEK293 cells; assay: Counter-screening protein-protein interaction transactivation assay (P53+AgT); assay type: cell-based; settings: HEK293, same conditions as TEAD-GAL4 assay
Description: as §1, with “created. HEK293 cells were seeded at 5×10^4 cells/well in 96 well plates (assay plates) in DMEM medium containing 4.5 g/L D-glucose, 10% high inactivated (HI) fetal bovine serum 1% Glutamax, 1% non-essential amino acid and 1% sodium pyruvate and 0.5% penicillin/streptomycin 37° C. in a humidified atmosphere of 8% CO2.” for “created.”

T1 sequence (P28347 209-426): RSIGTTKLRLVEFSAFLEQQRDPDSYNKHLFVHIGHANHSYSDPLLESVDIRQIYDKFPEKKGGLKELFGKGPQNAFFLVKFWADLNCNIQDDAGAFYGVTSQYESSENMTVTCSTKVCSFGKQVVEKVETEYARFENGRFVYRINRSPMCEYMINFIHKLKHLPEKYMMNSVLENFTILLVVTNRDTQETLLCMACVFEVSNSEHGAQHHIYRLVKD

SMILES	effect on cell proliferation (SW620 cell line)	inhibition at 30 µM [1]	Emax [2]	IC50 [2]	inhibition of cell proliferation [3]	inhibitory effect in counter screening assay (P53+AgT) [4]	melting point	inhibition at 0.886 µM ([2]; at 0.886 μM (so in the source))
COc1cc(/C=N/N(CCO)C2=NS(=O)(=O)c3ccccc32)ccc1O [Example 2, 4-[(E)-[(1,1-dioxo-1,2-benzothiazol-3-yl)-(2-hydroxyethyl)-hydrazono]methyl]-2-methoxy-phenol]	without showing any effect	50 to 75%	93%	949 nM	inhibited	no inhibitory effect was observed		
COc1cc(/C=N/N(C)C2=NS(=O)(=O)c3ccccc32)ccc1O [Example 1, 4-[(E)-[(1,1-dioxo-1,2-benzothiazol-3-yl)-methyl-hydrazono]methyl]-2-methoxy-phenol]	without showing any effect	50 to 75%	92%	886 nM	inhibited	no inhibitory effect was observed	218 °C	92%
COc1cc(/C=N/N(C)C2=NS(=O)(=O)c3cc(C(=O)O)ccc32)ccc1O [Example 34, 3-[[(E)-(4-hydroxy-3-methoxy-phenyl)methyleneamino]-methyl-amino]-1,1-dioxo-1,2-benzothiazole-6-carboxylic acid]			97%	4570 nM			> 260 °C	
COCCN(/N=C/c1ccc(O)c(OC)c1)C1=NS(=O)(=O)c2ccccc21 [Example 7, 4-[(E)-[(1,1-dioxo-1,2-benzothiazol-3-yl)-(2-methoxyethyl)hydrazono]-methyl]-2-methoxy-phenol]	without showing any effect	50 to 75%	94%	4580 nM	inhibited	no inhibitory effect was observed		
COc1cc(/C=N/N(C)C2=NS(=O)(=O)c3cc(-c4ccccc4)ccc32)ccc1O [Example 39, 4-[(E)-[(1,1-dioxo-6-phenyl-1,2-benzothiazol-3-yl)-methyl-hydrazono]-methyl]-2-methoxy-phenol]			61%	62200 nM				
COc1cc(/C=N/N(C2=NS(=O)(=O)c3ccccc32)C(C)C)ccc1O [Example 36, 4-[(E)-[(1,1-dioxo-1,2-benzothiazol-3-yl)-isopropyl-hydrazono]methyl]-2-methoxy-phenol]			77%	78000 nM				
COc1cc(/C=N/N(CCO)C2=NS(=O)(=O)c3ccc(C)cc32)ccc1O [Example 27, 4-[(E)-[2-hydroxyethyl-(5-methyl-1,1-dioxo-1,2-benzothiazol-3-yl)hydrazono]methyl]-2-methoxy-phenol]			91%	891 nM				
COc1ccc2c(c1)C(N(CCN1CCOCC1)/N=C/c1ccc(O)c(OC)c1)=NS2(=O)=O [Example 12, 2-methoxy-4-[(E)-[(5-methoxy-1,1-dioxo-1,2-benzothiazol-3-yl)-(2-morpholinoethyl)hydrazono]methyl]phenol]			95%	583 nM				
COc1cc(/C=N/N(C)C2=NS(=O)(=O)c3c(OC)cc(C)cc32)ccc1O [Example 31, 2-methoxy-4-[(E)-[(7-methoxy-5-methyl-1,1-dioxo-1,2-benzothiazol-3-yl)-methyl-hydrazono]methyl]phenol]			92%	131 nM				
COc1cc(/C=N/N(C)C2=NS(=O)(=O)c3c(C)cc(F)cc32)ccc1O [Example 20, 4-[(E)-[(5-fluoro-7-methyl-1,1-dioxo-1,2-benzothiazol-3-yl)-methyl-hydrazono]methyl]-2-methoxy-phenol]			95%	3410 nM			> 260 °C	
COc1cc(/C=N/N(C)C2=NS(=O)(=O)c3c(OC)cccc32)ccc1O [Example 21, 2-methoxy-4-[(E)-[(7-methoxy-1,1-dioxo-1,2-benzothiazol-3-yl)-methyl-hydrazono]methyl]phenol]			89%	123 nM				
COc1cc(/C=N/N(CC(=O)NCCO)C2=NS(=O)(=O)c3ccccc32)ccc1O [Example 9, 2-[(1,1-dioxo-1,2-benzothiazol-3-yl)-[(E)-(4-hydroxy-3-methoxy-phenyl)methyleneamino]amino]-N-(2-hydroxyethyl)acetamide]			96%	11600 nM				
COCCN(/N=C/c1ccc(O)c(OC)c1)C1=NS(=O)(=O)c2ccc(OC)cc21 [Example 15, 2-methoxy-4-[(E)-[(5-methoxy-1,1-dioxo-1,2-benzothiazol-3-yl)-(2-methoxyethyl)hydrazono]methyl]phenol]			89%	2890 nM				
COc1ccc2c(c1)C(N(CCCN1CCOCC1)/N=C/c1ccc(O)c(OC)c1)=NS2(=O)=O [Example 13, 2-methoxy-4-[(E)-[(5-methoxy-1,1-dioxo-1,2-benzothiazol-3-yl)-(3-morpholinopropyl)hydrazono]methyl]phenol hydrochloride]			95%	2120 nM				
